US8921398B2 (Boehringer Ingelheim International GmbH, priority 2011, dated 2014)

target: T1, human GPR119 (Homo sapiens, UniProt Q8TDV5); experiment: AlphaScreen cAMP assay in MIN6 cells stably transfected with human GPR119; format: cell-based; settings: Min-6/hGPR119 cells, 45 minutes incubation at room temperature
T1 construct: expression vector for human GPR119 cDNA (Acc. No. NP_848566); expressed in transfected cells
T1 sequence (Q8TDV5 1-335): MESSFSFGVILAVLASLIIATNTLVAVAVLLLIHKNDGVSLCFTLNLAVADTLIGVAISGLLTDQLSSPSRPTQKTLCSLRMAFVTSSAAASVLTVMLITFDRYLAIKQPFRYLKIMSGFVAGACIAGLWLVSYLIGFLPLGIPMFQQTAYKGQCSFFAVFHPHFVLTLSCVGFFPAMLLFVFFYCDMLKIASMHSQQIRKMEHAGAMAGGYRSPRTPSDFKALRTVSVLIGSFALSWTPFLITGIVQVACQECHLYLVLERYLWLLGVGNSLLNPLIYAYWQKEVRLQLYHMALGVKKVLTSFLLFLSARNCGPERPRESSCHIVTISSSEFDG
Method: The compounds of formula I according to the invention modulate the activity of the G-protein-coupled receptor GPR119. The effect of the compounds on the activation of GPR119 and on the stimulation of intracellular cAMP concentration is determined using the AlphaScreen cAMP Assay Kit (Cat.No.#6760625R) made by PerkinElmer.
MIN6 cells [Miyazaki J et al. Endocrinology. 1990 July; 127(1):126-32] are stably transfected with an expression vector for human GPR119 cDNA (Acc. No. NP_848566). Min-6/hGPR119 cells are cultured in DMEM, 10% FBS, 50 μM β-mercaptoethanol, 0.3 mg/mL Geniticin, 2 mM GlutaMAX at 37° C. 5% CO2. For the assay, the cells are seeded in Optiplates (white, 384-well, 160W-barcoded, TC, sterile with lid, Cat.No.#6007688 (Perkin Elmer); 10000 cells/well; 50 μl). The plates covered with lids are then incubated for 24 hours at 37° C./5% CO2. After the medium is aspirated from the wells completely, 10 μl of the test compound are added, the compounds are diluted using stimulating buffer (140 mM NaCl, 3.6 mM KCl, 0.5 mM NaH2PO4, 0.5 mM MgSO4, 1.5 mM CaCl2, 10 mM Hepes, 5 mM NaHCO3; pH 7.4. 0.5 mM IBMX and 0.1% BSA, the final DMSO concentration is 1%). After 45 minutes incubation at room temperature (approx. 20° C.), the cAMP concentrations are determined using the AlphaScreen cAMP Assay Kit (Cat.No.#6760625R from PerkinElmer).

SMILES	EC50
CCc1cnc(N2CCC(N(C(=O)c3cnc(-n4ccnc4C)nc3)C3CC3)CC2)nc1 [Example 14, 2-(2-Methyl-imidazol-1-yl)-pyrimidine-5-carboxylic acid cyclopropyl-[1-(5-ethyl-pyrimidin-2-yl)-piperidin-4-yl]-amide]	21 nM
CCc1cnc(N2CCC(N(C(=O)c3cnc(-n4ccnc4CC)nc3)C3CC3)CC2)nc1 [Example 15, 2-(2-Ethyl-imidazol-1-yl)-pyrimidine-5-carboxylic acid cyclopropyl-[1-(5-ethyl-pyrimidin-2-yl)-piperidin-4-yl]-amide]	60 nM
CCCc1noc(N2CCC(N(C(=O)c3cnc(-c4ccc(S(C)(=O)=O)cc4)nc3)C3CC3)CC2)n1 [Example 16, 2-(4-Methanesulfonyl-phenyl)-pyrimidine-5-carboxylic acid cyclopropyl-[1-(3-propyl-[1,2,4]oxadiazol-5-yl)-piperidin-4-yl]-amide]	159 nM
CCc1cnc(N2CCC(N(C(=O)c3ccc(-n4ccnc4)nn3)C3CC3)CC2)nc1 [Example 17, 6-Imidazol-1-yl-pyridazine-3-carboxylic acid cyclopropyl-[1-(5-ethyl-pyrimidin-2-yl)-piperidin-4-yl]-amide]	964 nM
CCCc1noc(N2CCC(N(C(=O)c3noc(-c4ccc(C#N)cc4F)n3)C3CC3)CC2)n1 [Example 18, 5-(4-Cyano-2-fluoro-phenyl)-[1,2,4]oxadiazole-3-carboxylic acid cyclopropyl-[1-(3-propyl-[1,2,4]oxadiazol-5-yl)-piperidin-4-yl]-amide]	7 nM
Cc1cnc(N2CCC(N(C(=O)c3cnc(-n4ccnc4C)nc3)C3CC3)CC2)cn1 [Example 19, 2-(2-Methyl-imidazol-1-yl)-pyrimidine-5-carboxylic acid cyclopropyl-[1-(5-methyl-pyrazin-2-yl)-piperidin-4-yl]-amide]	97 nM
CS(=O)(=O)c1ccc(-c2ncc(C(=O)N(C3CC3)C3CCN(c4noc(C5CC5)n4)CC3)cn2)cc1 [Example 20, 2-(4-Methanesulfonyl-phenyl)-pyrimidine-5-carboxylic acid cyclopropyl-[1-(5-cyclopropyl-[1,2,4]oxadiazol-3-yl)-piperidin-4-yl]-amide]	92 nM
CCCc1noc(N2CCC(N(C(=O)c3cnc(-n4ccnc4)nc3)C3CC3)CC2)n1 [Example 21, 2-Imidazol-1-yl-pyrimidine-5-carboxylic acid cyclopropyl-[1-(3-propyl-[1,2,4]oxadiazol-5-yl)-piperidin-4-yl]-amide]	123 nM
CCCc1noc(N2CCC(N(C(=O)c3cnc(-n4ccnc4C)nc3)C3CC3)CC2)n1 [Example 22, 2-(2-Methyl-imidazol-1-yl)-pyrimidine-5-carboxylic acid cyclopropyl-[1-(3-propyl-[1,2,4]oxadiazol-5-yl)-piperidin-4-yl]-amide]	137 nM
CCCc1noc(N2CCC(N(C(=O)c3cnc(-n4ccnc4CC)nc3)C3CC3)CC2)n1 [Example 23, 2-(2-Ethyl-imidazol-1-yl)-pyrimidine-5-carboxylic acid cyclopropyl-[1-(3-propyl-[1,2,4]oxadiazol-5-yl)-piperidin-4-yl]-amide]	103 nM
Cc1nccn1-c1ncc(C(=O)N(C2CC2)C2CCN(c3noc(C4CC4)n3)CC2)cn1 [Example 24, 2-(2-Methyl-imidazol-1-yl)-pyrimidine-5-carboxylic acid cyclopropyl-[1-(5-cyclopropyl-[1,2,4]oxadiazol-3-yl)-piperidin-4-yl]-amide]	83 nM
O=C(c1cnc(-n2ccnc2)nc1)N(C1CC1)C1CCN(c2noc(C3CC3)n2)CC1 [Example 25, 2-Imidazol-1-yl-pyrimidine-5-carboxylic acid cyclopropyl-[1-(5-cyclopropyl-[1,2,4]oxadiazol-3-yl)-piperidin-4-yl]-amide]	103 nM
CCc1nccn1-c1ncc(C(=O)N(C2CC2)C2CCN(c3noc(C4CC4)n3)CC2)cn1 [Example 26, 2-(2-Ethyl-imidazol-1-yl)-pyrimidine-5-carboxylic acid cyclopropyl-[1-(5-cyclopropyl-[1,2,4]oxadiazol-3-yl)-piperidin-4-yl]-amide]	156 nM
Cc1nccn1-c1ncc(C(=O)N(C2CC2)C2CCN(c3ncc(C(F)(F)F)cc3F)CC2)cn1 [Example 27, 2-(2-Methyl-imidazol-1-yl)-pyrimidine-5-carboxylic acid cyclopropyl-(3′-fluoro-5′-trifluoromethyl-3,4,5,6-tetrahydro-2H-[1,2′]bipyridinyl-4-yl)-amide]	6 nM
CC(C)c1noc(N2CCC(N(C(=O)c3cc(-c4ccc(C#N)cc4F)no3)C3CC3)CC2)n1 [Example 28, 3-(4-Cyano-2-fluoro-phenyl)-isoxazole-5-carboxylic acid cyclopropyl-[1-(3-isopropyl-[1,2,4]oxadiazol-5-yl)-piperidin-4-yl]-amide]	3 nM
CC(C)c1noc(N2CCC(N(C(=O)c3cc(-c4ccc(C#N)cc4F)on3)C3CC3)CC2)n1 [Example 29, 5-(4-Cyano-2-fluoro-phenyl)-isoxazole-3-carboxylic acid cyclopropyl-[1-(3-isopropyl-[1,2,4]oxadiazol-5-yl)-piperidin-4-yl]-amide]	3 nM
CC(C)(C)c1noc(N2CCC(N(C(=O)c3cc(-c4ccc(C#N)cc4F)on3)C3CC3)CC2)n1 [Example 30, 5-(4-Cyano-2-fluoro-phenyl)-isoxazole-3-carboxylic acid [1-(3-tert-butyl-[1,2,4]oxadiazol-5-yl)-piperidin-4-yl]-cyclopropyl-amide]	5 nM
CC(C)(C)c1noc(N2CCC(N(C(=O)c3cc(-c4ccc(C#N)cc4F)no3)C3CC3)CC2)n1 [Example 31, 3-(4-Cyano-2-fluoro-phenyl)-isoxazole-5-carboxylic acid [1-(3-tert-butyl-[1,2,4]oxadiazol-5-yl)-piperidin-4-yl]-cyclopropyl-amide]	6 nM
CC(C)(C)c1noc(N2CCC(N(C(=O)c3cnc(-c4cnco4)cn3)C3CC3)CC2)n1 [Example 32, 5-Oxazol-5-yl-pyrazine-2-carboxylic acid [1-(3-tert-butyl-[1,2,4]oxadiazol-5-yl)-piperidin-4-yl]-cyclopropyl-amide]	14 nM
CC(C)c1noc(N2CCC(N(C(=O)c3cnc(-c4cnco4)cn3)C3CC3)CC2)n1 [Example 33, 5-Oxazol-5-yl-pyrazine-2-carboxylic acid cyclopropyl-[1-(3-isopropyl-[1,2,4]oxadiazol-5-yl)-piperidin-4-yl]amide]	25 nM
CCc1cnc(N2CCC(N(C(=O)c3ccc(-c4cnco4)nc3)C3CC3)CC2)nc1 [Example 34, N-Cyclopropyl-N-[1-(5-ethyl-pyrimidin-2-yl)-piperidin-4-yl]-6-oxazol-5-yl-nicotinamide]	27 nM
CC(C)c1noc(N2CCC(N(C(=O)c3ccc(-c4cnco4)nc3)C3CC3)CC2)n1 [Example 35, N-Cyclopropyl-N-[1-(3-isopropyl-[1,2,4]oxadiazol-5-yl)-piperidin-4-yl]-6-oxazol-5-yl-nicotinamide]	33 nM
CC(C)(C)c1noc(N2CCC(N(C(=O)c3ccc(-c4cnco4)nc3)C3CC3)CC2)n1 [Example 36, N-[1-(3-tert-Butyl-[1,2,4]oxadiazol-5-yl)-piperidin-4-yl]-N-cyclopropyl-6-oxazol-5-yl-nicotinamide]	46 nM
CCc1cnc(N2CCC(N(C(=O)c3ccc(-c4cnco4)nc3)C3CC3)CC2)cn1 [Example 37, N-Cyclopropyl-N-[1-(5-ethyl-pyrazin-2-yl)-piperidin-4-yl]-6-oxazol-5-yl-nicotinamide]	59 nM
CCc1cnc(N2CCC(N(C(=O)c3cnc(-c4cnco4)cn3)C3CC3)CC2)nc1 [Example 38, 5-Oxazol-5-yl-pyrazine-2-carboxylic acid cyclopropyl-[1-(5-ethyl-pyrimidin-2-yl)-piperidin-4-yl]-amide]	63 nM
CCCc1noc(N2CCC(N(C(=O)c3cnc(-c4cnco4)cn3)C3CC3)CC2)n1 [Example 39, 5-Oxazol-5-yl-pyrazine-2-carboxylic acid cyclopropyl-[1-(3-propyl-[1,2,4]oxadiazol-5-yl)-piperidin-4-yl]-amide]	67 nM
CCCc1noc(N2CCC(N(C(=O)c3ccc(-c4cnco4)nc3)C3CC3)CC2)n1 [Example 40, N-Cyclopropyl-6-oxazol-5-yl-N-[1-(3-propyl-[1,2,4]oxadiazol-5-yl)-piperidin-4-yl]-nicotinamide]	89 nM
